Legend:
Ramos xenograft = test: In vivo efficacy, Ramos xenograft model; design: species or system mice
Experimental: A further in vivo study was conducted, similar to Example 2 but using a Ramos xenograft model.
Female severe combined immunodeficient mice (Fox Chase SCID®, CB17/Icr-Prkdc^scid/IcrIcoCrl, Charles River) were eight weeks old with a body weight (BW) range of 15.6 to 22.9 g on Day 1 of the study.
On the day of implant, 1×10^7 Ramos cells (0.1 mL suspension) were subcutaneously implanted into the right flank of each test animal and tumors were monitored as their volumes approached the target range. All vehicle and ADC doses were administered i.v. via tail vein injection once on Day 1 (qd×1). The dosing volume was 0.2 mL per 20 grams of body weight (10 mL/kg) and was scaled to the body weight of each individual animal.
Fourteen days after tumor implantation, designated as Day 1 of the study, the animals were sorted into groups (n=10) with individual tumor volumes of 108 to 144 mm^3 and group mean tumor volumes of 130 to 134 mm^3.
(§1) Tumors were measured using calipers twice per week, and each animal was euthanized when its tumor reached the endpoint volume of 1000 mm^3 or at the end of the study, whichever came first. The study ended on Day 62.

WSU-DLCL2 xenograft = test: In vivo efficacy, WSU-DLCL2 xenograft model; design: species or system mice
Experimental: Female severe combined immunodeficient mice (Fox Chase SCID®, CB17/Icr-Prkdc^scid/IcrIcoCrl, Charles River) were nine weeks old with a body weight (BW) range of 17.3 to 24.1 g on Day 1 of the study.
On the day of implant, 1×10^7 WSU-DLCL2 cells (0.1 mL suspension) were subcutaneously implanted into the right flank of each test animal and tumors were monitored as their volumes approached the target range.
Ten days after tumor implantation, designated as Day 1 of the study, the animals were sorted into groups (n=10) with individual tumor volumes of 88 to 126 mm^3 and group mean tumor volumes of 109 to 111 mm^3.
All vehicle and ADC doses were administered i.v. via tail vein injection once on Day 1 (qd×1). The dosing volume was 0.2 mL per 20 grams of body weight (10 mL/kg) and was scaled to the body weight of each individual animal.
as §1
Tumors were measured in two dimensions using calipers, and volume was calculated using the formula
Tumor Volume (mm^3)=w^2×l/2, where w=width and l=length, in mm, of the tumor.
Tumor weight may be estimated with the assumption that 1 mg is equivalent to 1 mm^3 of tumor volume.

[1] = CD19xADC 0.3 mg/kg i.v. once on Day 1, n=10
[2] = CD19xADC 0.6 mg/kg i.v. once on Day 1, n=10
[3] = CD19xADC 0.25 mg/kg i.v. once on Day 1, n=10
[4] = CD19xADC 0.5 mg/kg i.v. once on Day 1, n=10

CD19xADC: anti-CD19 ADC; Loncastuximab tesirine is the CD19xADC used
CR (complete response) (Ramos xenograft; [1]): 0 | PR (partial response) (Ramos xenograft; [1]): 0 | TFS (tumour free survivor) (Ramos xenograft; [1]): 0 | CR (complete response) (Ramos xenograft; [2]): 7 | PR (partial response) (Ramos xenograft; [2]): 0 | TFS (tumour free survivor) (Ramos xenograft; [2]): 7 | CR (complete response) (WSU-DLCL2 xenograft; [3]): 0 | PR (partial response) (WSU-DLCL2 xenograft; [3]): 3 | TFS (tumour free survivor) (WSU-DLCL2 xenograft; [3]): 0 | CR (complete response) (WSU-DLCL2 xenograft; [4]): 5 | PR (partial response) (WSU-DLCL2 xenograft; [4]): 2 | TFS (tumour free survivor) (WSU-DLCL2 xenograft; [4]): 3

Source: patent publication US20250352658A1, “COMBINATION THERAPY USING ANTIBODY-DRUG CONJUGATES” (ADC THERAPEUTICS SA, priority 2021, published 2025)
